Values of other authors as cited in patent publication US20210085711A1 (Japan Tobacco Inc., priority 2017, published 2021).

System: patients
Conditions: investigation up to the approval; cited from earlier work

For sodium ferrous citrate, the “expression rate of nausea and vomiting” value is given as “about 13%”.
